In patent US20130165475A1, “DEUTERIUM-ENRICHED HETEROCYCLIC COMPOUNDS AS KINASE INHIBITORS” (ASCEPION PHARMACEUTICALS, INC., priority 2010, published 2013):

Legend:
[1] = system: A549 human non-small cell lung cancer cells; test: In vivo anti-tumor efficacy, A549 xenograft; details: A549 s.c. in nu/nu Balb/c athymic mice, 50 mg/kg once per day oral gavage
Description: (§1) Female (nu/nu) Balb/c athymic mice at 4-6 weeks of age were injected subcutaneously (s.c.) with MDA-MB-231 human breast cancer cells, A549 human non-small cell lung cancer cells, BEL7401 human liver cancer cells, HT-29 human colon cancer cells, or MKN-45 human gastric cancer cells (ATCC, 5×10^6 cells suspended in 100 μl DMEM medium). Treatment was initiated after the tumor mass grown from subcutaneous implanted tumor cells reaches a median volume of 200-400 mm^3. Mice were randomized into groups with three in each group such that the median tumor volume is nearly equal among all groups. […] Tumor volumes were assessed at least twice weekly by caliper measurement from the start of treatment. Tumor volume was calculated using the formula ½×L×W^2 (L: length of tumor's long axis, W: length of tumor's short axis). […] The efficacy of compounds in reducing tumor growth was assessed by the index Tumor Growth Inhibition (TGI). TGI for a given treatment period was calculated using the group mean tumor volumes according to the formula: TGI=100×(Vvehicle—group−VTreatment—group)÷VVehicle—group wherein VVehicle—group representing the mean tumor volume for the group treated with vehicle and VTreatment—group representing the mean tumor volume of the group treated with a compound.

[2] = Oral bioavailability study, Group 1 (mice); type: in vivo, male ICR mice
Description: Oral pharmacokinetic studies were performed on Example 2. Specifically, this compound was dissolved in PEG-400 (2:1 mixture of PEG400 and 0.01N HCL (v/v)) and administered orally to male ICR mice at a dose of 50 mg/kg. Mice blood was obtained via eyeball enucleation at 0.25, 0.5, 1, 2, 3, 4, 6, 8, 12 and 24 hours after administration. The concentration of Example 2 in blood was determined using appropriate internal standards and reverse phase HPLC with UV detection.
Control blood samples were also used to identify compound-specific peaks. The oral bioavailability was determined by comparing the dose corrected areas under plasma-concentration time curve (AUC) to infinity for Example 2, given orally and intravenously in mice.

[3] = system: MDA-MB-231 human breast cancer cells; test: In vivo anti-tumor efficacy, MDA-MB-231 xenograft; details: MDA-MB-231 s.c. in nu/nu Balb/c athymic mice, 50 mg/kg once per day oral gavage
Description: as §1

[4] = system: BEL7404; test: In vivo anti-tumor efficacy, BEL7404 xenograft; design: species or system human; details: Liver cancer, BEL7404 s.c. in nu/nu Balb/c athymic mice, 50 mg/kg once per day oral gavage
[5] = Oral bioavailability study, Group 2 (rats); type: in vivo, male SD rat
Description: Oral pharmacokinetic studies on rats were performed on Example 2, this compound was dissolved in PEG-400 (2:1 mixture of PEG400 and 0.01N HCL (v/v)) and administered orally to male SD rat at a dose of 50 mg/kg. Rat blood was obtained from tail vein at 0.25, 0.5, 1, 2, 3, 4, 6, 8, 12, and 24 hours after administration. The blood concentration of Example 2 was determined using appropriate internal standards and reverse phase HPLC with UV detection. Control blood samples were also run to identify compound-specific peaks. The oral bioavailability was determined by comparing the dose corrected areas under plasma-concentration time curve (AUC) to infinity for Example 2, given orally and intravenously in rats.

[6] = system: HT-29 human colon cancer cells; test: In vivo anti-tumor efficacy, HT-29 xenograft; details: HT-29 s.c. in nu/nu Balb/c athymic mice, 50 mg/kg once per day oral gavage
Description: as §1

## Cl.[2H]C([2H])(c1ccnc(N)c1)n1ccc2c(NC(=O)Nc3cc(Cl)ccc3OC)cccc21 [Example 2, 1-[1-[(2-amino-4-pyridyl)-dideuteriomethyl]indol-4-yl]-3-(5-chloro-2-methoxyphenyl)urea hydrochloride]
[1]
  Tumor Growth Inhibition (TGI): A (the TGI is greater or equal to 50%)
[2]; mice, 0.25 hour after 50 mg/kg oral dosing
  amount detected in blood after oral dosing: substantial amounts
[2]; mouse, plasma, male ICR mice, 50 mg/kg oral, AUC to infinity oral vs intravenous
  bioavailability: > 88%
[2]; mouse, whole blood, male ICR mice, 50 mg/kg oral
  half-life: 2.3 to 3.5 h
[3]
  Tumor Growth Inhibition (TGI): A (the TGI is greater or equal to 50%)
[4]
  Tumor Growth Inhibition (TGI): A (the TGI is greater or equal to 50%)
[5]; plasma, male SD rat, 50 mg/kg oral, AUC to infinity oral vs intravenous
  bioavailability: > 67%
[5]; rat study, 0.25 hours after 50 mg/kg oral dosing
  amount detected in blood after oral dosing: substantial amounts
[5]; whole blood, male SD rat, 50 mg/kg oral
  half-life: 2 to 3 h
[6]
  Tumor Growth Inhibition (TGI): A (the TGI is greater or equal to 50%)
